By inhibition is commonly meant the relative decrease from the control value, in per cent. Broadly, the fold induction is the signal under treatment as a multiple of the control signal.

The values that follow come from patent publication US20230183179A1, “NOVEL CELL METABOLISM MODULATING COMPOUNDS AND USES THEREOF” (CRESCENTA BIOSCIENCES, priority 2020, published 2023).

The target in assay [1] is T1, His6 tagged human recombinant FABP4 (Homo sapiens, UniProt P15090).
T1 construct: purchased Cayman Chemicals 10009549
As to the kind of experiment: FABP4 TR-FRET assay: displacement of fluorescent fatty acid BODIPY FL C12. Particulars: inhibition of BODIPY FL C12 binding to His6-FABP4; 1.2 μL of 1.085 mM compound in DMSO per well; triplicates, mean percent inhibition. In a few lines:
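TR-FRET displacement of BODIPY FL C12 from His6-FABP4 bound by Tb-anti-His6 antibody, in Tris pH 7.4 buffer with γ-globulins, NP-40 and DTT; compound stock 1.085 mM in DMSO. Read after 10 min at room temperature as 520/615 nm ratio; mean % inhibition versus DMSO from triplicates.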

In assay [2] the test system is differentiated 3T3-L1 mouse adipocyte cells. The assay is described as follows: Adipocyte glucose consumption in differentiated 3T3-L1 cells (colorimetric glucose assay of the medium). Particulars: 3T3-L1, 24 h, compound 10 μM, loss of glucose from culture medium, mean fold change (compound/DMSO). The class given is cell-based. In a few lines: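 Differentiated 3T3-L1 mouse adipocytes (rosiglitazone/dexamethasone/IBMX/insulin induction, day 11) treated 24 h with compounds at 10 μM, 0.1% DMSO final. Medium glucose measured colorimetrically; consumption taken as glucose loss from medium versus cell-free control, expressed as mean fold change compound/DMSO ±SD.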

T1 sequence (P15090 whole entry): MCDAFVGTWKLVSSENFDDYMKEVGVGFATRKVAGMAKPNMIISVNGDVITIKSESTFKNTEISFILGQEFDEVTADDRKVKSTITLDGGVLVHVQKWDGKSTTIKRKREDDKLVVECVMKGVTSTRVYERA

Regarding `CCCCCCc1ccc2nc(N(C)CC(=O)O)cc(-c3cccnc3)c2c1` [2-{[6-hexyl-4-(pyridin-3-yl)quinolin-2-yl](methyl)amino}acetic acid], the inhibition at 1085 µM (stock) in assay [1] is 71.3%. In assay [2], the fold induction at 10 µM turned out to be 1.28.
As to `CCCCCCCCc1ccc2nc(N(C)CC(=O)O)cc(-c3ccc(F)cc3)c2c1` [2-{[4-(4-fluorophenyl)-6-octylquinolin-2-yl](methyl)amino}acetic acid], the inhibition at 1085 µM (stock) in assay [1] amounted to 53.8%. Further, the fold induction at 10 µM in assay [2] is 1.28.
The corresponding values for `CCCCCc1ccc2nc(OCC(=O)O)cc(-c3ccccc3)c2c1` [2-[(6-pentyl-4-phenylquinolin-2-yl)oxy]acetic acid] are 55.1% and 1.05.
For the compound `CCCCCCc1ccc2nc(N3CCOC(C(=O)O)C3)cc(-c3ccccc3)c2c1` (stereo not shown) [4-(6-hexyl-4-phenylquinolin-2-yl)morpholine-2-carboxylic acid], the inhibition at 1085 µM (stock) in assay [1] is 36.1%. Moreover, in assay [2], the fold induction at 10 µM was 1.22.
The corresponding values for `CCCc1ccc2nc(N(C)CC(=O)O)cc(-c3cccc(C(N)=O)c3)c2c1` [2-{[4-(3-carbamoylphenyl)-6-propylquinolin-2-yl](methyl)amino}acetic acid] are 48% and 1.07.
The corresponding values for `CCCCc1ccc2nc(OC(C)C(=O)O)cc(-c3cccc(C#N)c3)c2c1` (stereo not shown) [2-{[6-butyl-4-(3-cyanophenyl)quinolin-2-yl]oxy}propanoic acid] are 12.7% and 1.26.
The corresponding values for `CCCCc1ccc2nc(N(C)CC(=O)O)cc(-c3ccccc3O)c2c1` [2-{[6-butyl-4-(2-hydroxyphenyl)quinolin-2-yl](methyl)amino}acetic acid] are 93.2% and 1.19.
For `CN(CC(=O)O)c1cc(-c2ccncc2)c2cc(CCc3cccnc3)ccc2n1` [2-[methyl({6-[2-(pyridin-3-yl)ethyl]-4-(pyridin-4-yl)quinolin-2-yl})amino]acetic acid], in assay [1], the inhibition at 1085 µM (stock) is 24.6%. Besides, the fold induction at 10 µM in assay [2] came to 1.06.
The corresponding values for `CCCCc1ccc2nc(N(C)CC(C)C(=O)O)cc(-c3ccccc3)c2c1` (stereo not shown) [3-[(6-butyl-4-phenylquinolin-2-yl)(methyl)amino]-2-methylpropanoic acid] are 74.7% and 1.34.
On the same counts, the results for `CN(CC(=O)O)c1cc(-c2ccccc2)c2cc(CCc3cccc(Cl)c3)ccc2n1` [2-({6-[2-(3-chlorophenyl)ethyl]-4-phenylquinolin-2-yl}(methyl)amino)acetic acid] are 57.1% and 1.47.
On to `N#Cc1cccc(-c2cc(OCC(=O)O)nc3ccc(Br)cc23)c1` [2-{[6-bromo-4-(3-cyanophenyl)quinolin-2-yl]oxy}acetic acid], for which the inhibition at 1085 µM (stock) in assay [1] was 19.9%. Besides, the fold induction at 10 µM in assay [2] was 0.99.
The corresponding values for `CC(C(=O)O)N(C)c1cc(-c2ccccc2)c2cc(Cl)ccc2n1` (stereo not shown) [2-[(6-chloro-4-phenylquinolin-2-yl)(methyl)amino]propanoic acid] are 97.4% and 1.18.
Regarding `CCCCCCc1ccc2nc(N(CCC)CC(=O)O)cc(-c3ccc(F)cc3)c2c1` [2-{[4-(4-fluorophenyl)-6-hexylquinolin-2-yl](propyl)amino}acetic acid], in assay [1], the inhibition at 1085 µM (stock) was 57.1%. In addition, the fold induction at 10 µM in assay [2] turned out to be 1.13.
Turning to `CCCCc1ccc2nc(N3CCCC(C(=O)O)C3)cc(-c3ccccc3)c2c1` (stereo not shown) [1-(6-butyl-4-phenylquinolin-2-yl)piperidine-3-carboxylic acid], the inhibition at 1085 µM (stock) in assay [1] stood at 98.1%. Besides, in assay [2], the fold induction at 10 µM stood at 1.25.
On the same counts, the results for `CN(CC(=O)O)c1cc(-c2ccccc2)c2cc(CCN3CCOCC3)ccc2n1` [2-[methyl({6-[2-(morpholin-4-yl)ethyl]-4-phenylquinolin-2-yl})amino]acetic acid] are 6.78% and 1.13.
The corresponding values for `CCc1ccc2nc(N(C)CC(=O)O)cc(-c3cccc(C#N)c3)c2c1` [2-{[4-(3-cyanophenyl)-6-ethylquinolin-2-yl](methyl)amino}acetic acid] are 50.8% and 1.16.
On the same counts, the results for `CN(CC(=O)O)c1cc(-c2ccccc2)c2cc(CCc3ncccn3)ccc2n1` [2-[methyl({4-phenyl-6-[2-(pyrimidin-2-yl)ethyl]quinolin-2-yl})amino]acetic acid] are less than 0% and 1.35.
On to `CCCCc1ccc2nc(N(C)CC(=O)O)cc(-c3cccc(F)c3)c2c1` [2-{[6-butyl-4-(3-fluorophenyl)quinolin-2-yl](methyl)amino}acetic acid], for which the inhibition at 1085 µM (stock) in assay [1] turned out to be 58.9%. Further, in assay [2], the fold induction at 10 µM was 1.43.
On to `CCCCCc1ccc2nc(N(C)CC(=O)O)cc(-c3cccc(C#N)c3)c2c1` [2-{[4-(3-cyanophenyl)-6-pentylquinolin-2-yl](methyl)amino}acetic acid], for which, in assay [1], the inhibition at 1085 µM (stock) is 65.1%. Moreover, the fold induction at 10 µM in assay [2] came out at 1.23.
On the same counts, the results for `CCCCCCc1ccc2nc(N(C)CC(=O)O)cc(Oc3cccc(F)c3)c2c1` [2-{[4-(3-fluorophenoxy)-6-hexylquinolin-2-yl](methyl)amino}acetic acid] are 98.8% and 1.21.
The corresponding values for `CCCCCCc1ccc2nc(N(C)CC(=O)O)cc(-c3ccncc3)c2c1` [2-{[6-hexyl-4-(pyridin-4-yl)quinolin-2-yl](methyl)amino}acetic acid] are 51.4% and 1.17.
On the same counts, the results for `CN(CC(=O)O)c1cc(-c2ccccc2)c2cc(Cl)ccc2n1` [2-[(6-chloro-4-phenylquinolin-2-yl)(methyl)amino]acetic acid] are 99.7% and 1.14.
For the compound `CN(CC(=O)NCC(=O)O)c1cc(-c2ccccc2)c2cc(Cl)ccc2n1` [2-{2-[(6-chloro-4-phenylquinolin-2-yl)(methyl)amino]acetamido}acetic acid], the inhibition at 1085 µM (stock) in assay [1] stood at 103%. Besides, in assay [2], the fold induction at 10 µM is 1.08.
As for `CCCCc1ccc2nc(N(C)CC(=O)O)cc(-c3ccccc3F)c2c1` [2-{[6-butyl-4-(2-fluorophenyl)quinolin-2-yl](methyl)amino}acetic acid], the inhibition at 1085 µM (stock) in assay [1] stood at 67%. For the same compound, in assay [2], the fold induction at 10 µM was 1.33.
The corresponding values for `CCCCCCCCc1ccc2nc(N(CC(=O)O)CC(C)C)cc(-c3ccc(F)cc3)c2c1` [2-{[4-(4-fluorophenyl)-6-octylquinolin-2-yl](2-methylpropyl)amino}acetic acid] are 68% and 1.28.
The corresponding values for `CN(CC(=O)O)c1cc(-c2ccccc2)c2cc(CCc3ccncc3)ccc2n1` [2-[methyl({4-phenyl-6-[2-(pyridin-4-yl)ethyl]quinolin-2-yl})amino]acetic acid] are less than 0% and 1.26.
Regarding `CCCCCCc1ccc2nc(N3CCCC(C(=O)O)C3)cc(-c3ccccc3)c2c1` (stereo not shown) [1-(6-hexyl-4-phenylquinolin-2-yl)piperidine-3-carboxylic acid], in assay [1], the inhibition at 1085 µM (stock) was 88.3%. The fold induction at 10 µM in assay [2] was determined as 1.16.
`CCCCCCc1ccc2c(-c3ccccc3)cc(N(C)CC(=O)O)nc2c1` [2-[(7-hexyl-4-phenylquinolin-2-yl)(methyl)amino]acetic acid]: the inhibition at 1085 µM (stock) in assay [1] stood at 25.3%. In addition, in assay [2], the fold induction at 10 µM is 1.26.
On the same counts, the results for `CCCc1ccc2nc(OCC(=O)O)cc(-c3cccc(C#N)c3)c2c1` [2-([4-(3-cyanophenyl)-6-propylquinolin-2-yl]oxy}acetic acid] are 34.8% and 1.06.
The corresponding values for `CN(CC(=O)O)c1cc(-c2ccccc2)c2ccc(Br)cc2n1` [2-[(7-bromo-4-phenylquinolin-2-yl)(methyl)amino]acetic acid] are 84.5% and 1.19.
With `CN(CCc1ccc2nc(N(C)CC(=O)O)cc(-c3ccccc3)c2c1)c1ccccc1` [2-[methyl(6-{2-[methyl(phenyl)amino]ethyl}-4-phenylquinolin-2-yl)amino]acetic acid], in assay [1], the inhibition at 1085 µM (stock) came out at 55.9%. Further, the fold induction at 10 µM in assay [2] was found to be 1.17.
`CN(CC(=O)O)c1cc(-c2ccccc2)c2cc(CCC3CNc4ccccc4N3)ccc2n1` (stereo not shown) [2-[methyl({4-phenyl-6-[2-(1,2,3,4-tetrahydroquinoxalin-2-yl)ethyl]quinolin-2-yl})amino]acetic acid]: the inhibition at 1085 µM (stock) in assay [1] was 14.9%. For the same compound, the fold induction at 10 µM in assay [2] turned out to be 1.26.
The corresponding values for `CCCCc1ccc2nc(N(C)CC(C)C(=O)O)cc(-c3ccc(F)cc3)c2c1` (stereo not shown) [3-{[6-butyl-4-(4-fluorophenyl)quinolin-2-yl](methyl)amino}-2-methylpropanoic acid] are 74% and 1.34.
On the same counts, the results for `CCCCCCc1ccc2nc(N(C)CC(=O)O)cc(-c3ccc(F)cc3)c2c1` [2-{[4-(4-fluorophenyl)-6-hexylquinolin-2-yl](methyl)amino}acetic acid] are 81% and 1.3.
On the same counts, the results for `CCCCCCc1ccc2nc(N(C)CC(=O)O)cc(-c3ccccc3)c2c1` [2-[(6-hexyl-4-phenylquinolin-2-yl)(methyl)amino]acetic acid] are 88.2% and 1.41.
